Source: US20090012165A1, “PHARMACEUTICAL COMBINATION OF NSAID AND PROSTAGLANDIN COMPOUND” (priority 2007, published 2009)

Test system: naproxen-induced gastric ulcer
Experiment: naproxen-induced gastric ulcer in rats (ulcer index 5 hours after oral dosing)
Type: in vivo, Male Crl: CD (SD) rats
Settings: for Ulcer Index (Mean ± S.E.): rats; for % Inhibition of ulcer index: vs vehicle + naproxen group
Procedure: Male Crl: […] The animal was euthanized by cervical dislocation 5 hours after administration of the dosing preparation, and the stomach was removed. The stomach was filled with 10 mL of saline and fixed in 1% formalin. Then the stomach was opened along the greater curvature and gently washed with saline. The length of the major axis of each gastric ulcer was measured with digital slide gauges, and the total length of the major axes of all gastric ulcers (ulcer index) was obtained.

Cc1c(OCC(F)(F)F)ccnc1C[S+]([O-])c1nc2ccccc2[nH]1 (stereo not shown) [Lansoprazole, lansoprazole, reference compound]
Ulcer Index (Mean ± S.E.) (Lansoprazole 1000 μg/kg + naproxen 200 mg/kg oral, 5 hours): 68.09 ± 7.61 | % Inhibition of ulcer index (Lansoprazole 1000 μg/kg + naproxen 200 mg/kg): 16% | effect on naproxen-induced gastric ulcers (in words) (lansoprazole 1000 μg/kg with naproxen): did not have a significant effect

CC[C@H](C)CC(F)(F)C(=O)CC[C@H]1[C@H](O)CC(=O)[C@@H]1CCCCCCC(=O)O [Compound A, 13,14-dihydro-15-keto-16,16-difluoro-18(S)-methyl-PGE1]
Ulcer Index (Mean ± S.E.) (Compound A 1 μg/kg + naproxen 200 mg/kg oral, 5 hours): 63.47 ± 10.87 | % Inhibition of ulcer index (Compound A 1 μg/kg + naproxen 200 mg/kg): 22% | Ulcer Index (Mean ± S.E.) (Compound A 10 μg/kg + naproxen 200 mg/kg oral, 5 hours, p<0.05 vs vehicle + naproxen): 12.15 ± 3.45 | % Inhibition of ulcer index (Compound A 10 μg/kg + naproxen 200 mg/kg): 85% | reduction of ulcer formation, significance (in words) (Compound A 10 μg/kg and 100 μg/kg + naproxen 200 mg/kg groups compared to vehicle + naproxen group): Significant reductions of ulcer formation | Ulcer Index (Mean ± S.E.) (Compound A 100 μg/kg + naproxen 200 mg/kg oral, 5 hours, p<0.01 vs vehicle + naproxen): 0.50 ± 0.40 | % Inhibition of ulcer index (Compound A 100 μg/kg + naproxen 200 mg/kg): 99.4% | ulcer formation induced by naproxen (in words) (Compound A at 1, 10 and 100 μg/kg with naproxen 200 mg/kg, dose-dependent): reduced | protective effect against ulcer formation in combination with NSAID (in words) (overall conclusion of Example 1): potent protective effect against ulcer formation

COc1ccc2cc([C@H](C)C(=O)O)ccc2c1 [naproxen, reference compound]
Ulcer Index (Mean ± S.E.) (Vehicle (0.01% Tween 80) + naproxen 200 mg/kg oral, 5 hours after administration, n=10): 81.48 ± 15.05
